From patent publication US11173143B2, “Composition for decreasing serum uric acid level” (ASAHI GROUP HOLDINGS, LTD., priority 2017, dated 2021)

Tested on: serum uric acid
Assay: Serum uric acid level after 8 weeks of daily intake in subjects with hyperuricemia
Format: in vivo, human
Settings: for Serum uric acid level, After 8 weeks: daily intake
Protocol: Tests were conducted with subjects with hyperuricemia having high serum uric acid levels (7.1 mg/dl or higher) after their written informed consents were obtained. […] Their serum uric acid levels were measured before the intake and after 8 weeks of the intake. A sign test was used as the test of significance.

## NCC(=O)O [Gly, glycine]
Average of the group (n=4)
  Amount of change: -0.13 mg/dL
  Serum uric acid level, Before start of intake: 7.73 mg/dL
  Serum uric acid level, After 8 weeks: 7.60 mg/dL
Subject A
  Amount of change: 0.4 mg/dL
  Serum uric acid level, Before start of intake: 8.9 mg/dL
  Serum uric acid level, After 8 weeks: 9.3 mg/dL
Subject B
  Amount of change: 0.0 mg/dL
  Serum uric acid level, Before start of intake: 7.8 mg/dL
  Serum uric acid level, After 8 weeks: 7.8 mg/dL
Subject C
  Amount of change: -0.5 mg/dL
  Serum uric acid level, Before start of intake: 7.1 mg/dL
  Serum uric acid level, After 8 weeks: 6.6 mg/dL
Subject D
  Amount of change: -0.4 mg/dL
  Serum uric acid level, Before start of intake: 7.1 mg/dL
  Serum uric acid level, After 8 weeks: 6.7 mg/dL
Subjects with hyperuricemia
  Change of serum uric acid levels after 8 weeks of continuous intake (in words): slightly decreased after 8 weeks of continuous intake, but the decreases were not significant
